Measurements as given in ChEMBL document CHEMBL4393739, “Design, synthesis and anti-inflammatory evaluation of novel pyrrolo[2,3-d]pyrimidin derivatives as potent JAK inhibitors” (Bioorg Med Chem, 2019).
pIC50: −log10 of the molar value. Calls of active or inactive are those of the source. The calls are words filed in the database; no cut-off is given here.

What was measured:
[1] = target: Tyrosine-protein kinase JAK1 (Homo sapiens) (UniProt P23458); conditions: at 10 µM
[2] = Solubility of the compound; format: physicochemical
RAW264.7 [3] = test: Antiinflammatory activity in LPS-induced mouse RAW264.7 cells assessed as reduction in NO generation by measuring NO level at 10 ug/ml measured after 18 hrs by Griess method; format: functional, cell-based
RAW264.7 [4] = test: Antiinflammatory activity in LPS-induced mouse RAW264.7 cells assessed as reduction in NO generation by measuring NO level at 2.5 ug/ml measured after 18 hrs by Griess method; format: functional, cell-based
RAW264.7 [5] = test: Antiinflammatory activity in LPS-induced mouse RAW264.7 cells assessed as reduction in NO generation by measuring NO level at 5 ug/ml measured after 18 hrs by Griess method; format: functional, cell-based
RAW264.7 [6] = test: Cytotoxicity against mouse RAW264.7 cells assessed as cell growth inhibition measured after 24 hrs by MTT assay; format: cell-based; conditions: for pIC50: Mus musculus, RAW264.7, 24 h; for Activity: mouse, raw264.7, 24 h
RAW264.7 [7] = test: Antiinflammatory activity in mouse RAW264.7 cells assessed as reduction in LPS-induced upregulation of IL-1 beta expression by Western blot analysis; format: functional, cell-based
RAW264.7 [8] = test: Antiinflammatory activity in LPS-induced mouse RAW264.7 cells assessed as protection against cell damage by measuring reduction in apoptotic body formation at 10 ug/ml cotreated with LPS measured after 18 hrs by light microscopy; format: functional, cell-based
RAW264.7 [9] = test: Antiinflammatory activity in LPS-induced mouse RAW264.7 cells assessed as protection against cell damage by measuring reduction in cell shrinking at 10 ug/ml cotreated with LPS measured after 18 hrs by light microscopy; format: functional, cell-based
RAW264.7 [10] = test: Antiinflammatory activity in LPS-induced mouse RAW264.7 cells assessed as protection against cell damage by measuring reduction in cell rounding at 10 ug/ml co-treated with LPS measured after 18 hrs by light microscopy; format: functional, cell-based
RAW264.7 [11] = test: Antiinflammatory activity in mouse RAW264.7 cells assessed as reduction in LPS-induced JAK1 expression by Western blot analysis; format: functional, cell-based
RAW264.7 [12] = test: Antiinflammatory activity in mouse RAW264.7 cells assessed as reduction in LPS-induced JAK2 expression by Western blot analysis; format: functional, cell-based

Chain of Tyrosine-protein kinase JAK1 (Homo sapiens) (P23458 whole entry): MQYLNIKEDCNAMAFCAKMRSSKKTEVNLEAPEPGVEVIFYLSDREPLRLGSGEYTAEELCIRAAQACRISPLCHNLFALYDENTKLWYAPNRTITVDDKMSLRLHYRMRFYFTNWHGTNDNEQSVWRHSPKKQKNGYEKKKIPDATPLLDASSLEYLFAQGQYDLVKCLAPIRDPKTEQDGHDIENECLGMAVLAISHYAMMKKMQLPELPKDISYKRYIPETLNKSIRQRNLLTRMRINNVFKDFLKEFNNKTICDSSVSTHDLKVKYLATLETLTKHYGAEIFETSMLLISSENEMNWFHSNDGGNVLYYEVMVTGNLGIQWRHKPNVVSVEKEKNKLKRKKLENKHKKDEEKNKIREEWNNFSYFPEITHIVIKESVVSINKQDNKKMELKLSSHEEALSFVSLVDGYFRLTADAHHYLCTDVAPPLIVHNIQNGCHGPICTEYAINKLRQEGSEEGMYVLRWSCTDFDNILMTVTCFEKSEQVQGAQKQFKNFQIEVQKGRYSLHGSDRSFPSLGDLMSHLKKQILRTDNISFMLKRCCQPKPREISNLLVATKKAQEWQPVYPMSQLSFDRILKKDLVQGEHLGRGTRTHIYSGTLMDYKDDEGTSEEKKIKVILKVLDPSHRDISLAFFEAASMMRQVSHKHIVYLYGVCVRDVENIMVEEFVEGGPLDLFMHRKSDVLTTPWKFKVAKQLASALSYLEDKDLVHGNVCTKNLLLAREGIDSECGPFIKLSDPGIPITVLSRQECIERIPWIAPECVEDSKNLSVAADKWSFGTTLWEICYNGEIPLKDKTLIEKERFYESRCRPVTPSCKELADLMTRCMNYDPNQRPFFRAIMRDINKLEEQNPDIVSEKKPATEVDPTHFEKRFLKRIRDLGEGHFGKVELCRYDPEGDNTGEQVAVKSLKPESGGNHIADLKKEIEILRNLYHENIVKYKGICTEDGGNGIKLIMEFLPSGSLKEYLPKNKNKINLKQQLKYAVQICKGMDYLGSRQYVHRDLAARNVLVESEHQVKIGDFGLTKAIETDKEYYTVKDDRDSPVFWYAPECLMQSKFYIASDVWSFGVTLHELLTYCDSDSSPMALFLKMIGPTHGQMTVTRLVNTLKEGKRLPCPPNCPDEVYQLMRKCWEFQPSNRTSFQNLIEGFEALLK

Compound	inhibition [1] [%]	solubility [2]	also measured
O=S(=O)(C1CC1)N1CCC(n2cc(-c3ncnc4[nH]ccc34)cn2)CC1	59.4	Insoluble	
O=[N+]([O-])c1ccc(S(=O)(=O)N2CCC(n3cc(-c4ncnc5[nH]ccc45)cn3)CC2)cc1	99.6	Insoluble	
O=[N+]([O-])c1ccccc1S(=O)(=O)N1CCC(n2cc(-c3ncnc4[nH]ccc34)cn2)CC1	96.6	Insoluble	Activity (RAW264.7 [3]): Active; Activity (RAW264.7 [4]): Active; Activity (RAW264.7 [5]): Active
O=C(CN1CCOCC1)N1CCC(n2cc(-c3ncnc4[nH]ccc34)cn2)CC1	69.6		
CCN(CC)CC(=O)N1CCC(n2cc(-c3ncnc4[nH]ccc34)cn2)CC1	38.6		
O=C(O)C1CCN(CC(=O)N2CCC(n3cc(-c4ncnc5[nH]ccc45)cn3)CC2)CC1	92.5		pIC50 (RAW264.7 [6]): 4.09; Activity (RAW264.7 [6]): Dose-dependent effect; Activity (RAW264.7 [7]): Active; Activity (RAW264.7 [8]): Active; Activity (RAW264.7 [9]): Active; Activity (RAW264.7 [10]): Active; Activity (RAW264.7 [11]): Dose-dependent effect; Activity (RAW264.7 [12]): Dose-dependent effect
O=C(CN1CCN(CCO)CC1)N1CCC(n2cc(-c3ncnc4[nH]ccc34)cn2)CC1	83		
Cc1ccccc1S(=O)(=O)N1CCC(n2cc(-c3ncnc4[nH]ccc34)cn2)CC1	94.7	Insoluble	
CCS(=O)(=O)N1CC(CC#N)(n2cc(-c3ncnc4[nH]ccc34)cn2)C1			Activity (RAW264.7 [3]): Active; Activity (RAW264.7 [4]): Active; Activity (RAW264.7 [5]): Active
N#Cc1ccc(S(=O)(=O)N2CCC(n3cc(-c4ncnc5[nH]ccc45)cn3)CC2)cc1	72.5	Insoluble	
CC1CCN(CC(=O)N2CCC(n3cc(-c4ncnc5[nH]ccc45)cn3)CC2)CC1	90.3		pIC50 (RAW264.7 [6]): 4.05; Activity (RAW264.7 [6]): Dose-dependent effect; Activity (RAW264.7 [7]): Active; Activity (RAW264.7 [8]): Active; Activity (RAW264.7 [3]): Active; Activity (RAW264.7 [9]): Active; Activity (RAW264.7 [4]): Active; Activity (RAW264.7 [10]): Active; Activity (RAW264.7 [5]): Active; Activity (RAW264.7 [11]): Dose-dependent effect; Activity (RAW264.7 [12]): Dose-dependent effect
CS(=O)(=O)N1CCC(n2cc(-c3ncnc4[nH]ccc34)cn2)CC1	22.1	Insoluble	
O=S(=O)(c1ccc(Cl)cc1)N1CCC(n2cc(-c3ncnc4[nH]ccc34)cn2)CC1	63.7	Insoluble	
COc1ccc(S(=O)(=O)N2CCC(n3cc(-c4ncnc5[nH]ccc45)cn3)CC2)cc1	53.2	Insoluble	
CN1CCN(CC(=O)N2CCC(n3cc(-c4ncnc5[nH]ccc45)cn3)CC2)CC1	72.8		
O=S(=O)(c1cccc(Br)c1)N1CCC(n2cc(-c3ncnc4[nH]ccc34)cn2)CC1	72.8	Insoluble	
CCS(=O)(=O)N1CCC(n2cc(-c3ncnc4[nH]ccc34)cn2)CC1	95.2	Insoluble	
O=C(CN1CCCCC1)N1CCC(n2cc(-c3ncnc4[nH]ccc34)cn2)CC1	65.6		
Cc1ccc(S(=O)(=O)N2CCC(n3cc(-c4ncnc5[nH]ccc45)cn3)CC2)cc1	92.4	Insoluble	
O=S(=O)(c1ccc(Br)cc1)N1CCC(n2cc(-c3ncnc4[nH]ccc34)cn2)CC1	60.3	Insoluble	
O=S(=O)(c1cc(F)cc(F)c1)N1CCC(n2cc(-c3ncnc4[nH]ccc34)cn2)CC1	93.6	Insoluble	
O=C(CN1CCCC1)N1CCC(n2cc(-c3ncnc4[nH]ccc34)cn2)CC1	55.1		
O=S(=O)(c1ccccc1)N1CCC(n2cc(-c3ncnc4[nH]ccc34)cn2)CC1	2.7	Insoluble	
O=[N+]([O-])c1cccc(S(=O)(=O)N2CCC(n3cc(-c4ncnc5[nH]ccc45)cn3)CC2)c1	92.4	Insoluble	
O=S(=O)(c1ccc(F)cc1)N1CCC(n2cc(-c3ncnc4[nH]ccc34)cn2)CC1	93.4	Insoluble	
CN(C)CC(=O)N1CCC(n2cc(-c3ncnc4[nH]ccc34)cn2)CC1	46.9		
